Active and inactive are the calls of the source.
Legend:
Staphylococcus aureus [1] = assay: Antibacterial activity against gentamicin-resistant Staphylococcus aureus ATCC 25923 incubated for 18 to 24 hrs; assay type: functional; settings: time 18-24 hrs
Staphylococcus aureus [2] = assay: (§1) Antibacterial activity against methicillin-resistant Staphylococcus aureus ATCC 33591 infected in Balb/c mouse model of pneumonia infection assessed as reduction in alveolar contraction in lung at 10 mg/kg, ip administered thrice at 4, 8 and 12 hrs post-infection measured after 24 hrs post-infection by H and E staining based analysis; assay type: functional, organism-based
Staphylococcus aureus [3] = assay: (§2) Antibacterial activity against methicillin-resistant Staphylococcus aureus ATCC 33591 infected in Balb/c mouse model of skin wound infection assessed as reduction in bacterial load in skin at 10 mg/kg, ip administered thrice at 1, 24 and 48 hrs post-infection measured after 72 hrs post-infection in presence of polymyxin B; assay type: functional, organism-based; settings: time 71.0 hrs
[4] = Toxicity in Balb/c mouse assessed as survival rate at 40 mg/kg, ip measured after 7 days; assay type: organism-based; settings: in vivo, time 7 day
Staphylococcus aureus [5] = assay: Additive bactericidal activity against methicillin-resistant Staphylococcus aureus ATCC 33591 incubated for 18 to 24 hrs in presence of ciprofloxacin by time-kill assay; assay type: functional, organism-based; settings: time 18-24 hrs
Staphylococcus aureus [6] = assay: Bactericidal activity against methicillin-resistant Staphylococcus aureus ATCC 33591 at 4 times MIC incubated for 24 hrs in presence of 4 ug/ml LPS by absorbance based assay; assay type: functional, organism-based
Staphylococcus aureus [7] = assay: as §2, with “IL-1beta activity” for “bacterial load”, “14 days by IHC analysis” for “72 hrs post-infection in presence of polymyxin B”; assay type: functional, organism-based; settings: time 14.0 day
Staphylococcus aureus [8] = assay: Antibacterial activity against methicillin-resistant Staphylococcus aureus ATCC 33591 infected in Balb/c mouse model of skin wound infection assessed as crusted back wound at 10 mg/kg, ip administered thrice at 1, 24 and 48 hrs post-infection measured after 9 days relative to control; assay type: functional; settings: time 9 day
[9] = Toxicity in Balb/c mouse assessed as survival rate at 20 to 40 mg/kg, ip measured after 7 days; assay type: organism-based; settings: in vivo, dose 20-40 mg/kg, time 7 day
Staphylococcus aureus [10] = assay: Induction of cell membrane damage in methicillin-resistant Staphylococcus aureus ATCC 33591 assessed as protein leakage at 2 to 8 times MIC measured upto 360 mins by absorbance based assay; assay type: functional, organism-based
Staphylococcus aureus [11] = assay: Antibacterial activity against gentamicin-resistant methicillin-resistant Staphylococcus aureus ATCC 33591 incubated for 18 to 24 hrs; assay type: functional; settings: time 18-24 hrs
[12] = Toxicity in Balb/c mouse assessed as change in key organs appearance at 20 to 40 mg/kg, ip measured after 7 days; assay type: organism-based; settings: in vivo, 168 h, dose 20-40 mg/kg, time 7 day
DNA = assay: Binding affinity to genomic DNA in methicillin-resistant Staphylococcus aureus ATCC 33591 at 1 to 8 times MIC; assay type: nucleic-acid assay
[13] = Toxicity in Balb/c mouse assessed as organ edema at 20 to 80 mg/kg, ip measured after 7 days; assay type: organism-based; settings: in vivo, 168 h, dose 20-80 mg/kg, time 7 day
Staphylococcus aureus [14] = assay: Antibacterial activity against methicillin-resistant Staphylococcus aureus ATCC 33591 infected in Balb/c mouse model of acute systemic infection assessed as reduction in inflammatory cell infiltration in heart at 10 mg/kg, ip measured after 5 days by H and E staining based analysis; assay type: functional, organism-based; settings: time 5.0 day
Staphylococcus aureus [15] = assay: Synergistic bactericidal activity against persistent methicillin-resistant Staphylococcus aureus ATCC 33591 at high concentration incubated for 18 to 24 hrs in presence of gentamycin by time-kill assay; assay type: functional, organism-based; settings: time 18-24 hrs
Staphylococcus aureus [16] = assay: Synergistic antibacterial activity against methicillin-resistant Staphylococcus aureus ATCC 33591 assessed as fractional inhibitory concentration index upto 2 times MIC incubated for 18 to 24 hrs in presence of imipenem by checkerboard assay; assay type: functional; settings: time 18-24 hrs
Staphylococcus aureus [17] = assay: Antibacterial activity against ciprofloxacin-resistant methicillin-resistant Staphylococcus aureus ATCC 33591 incubated for 18 to 24 hrs; assay type: functional; settings: time 18-24 hrs
Staphylococcus aureus [18] = assay: as §2, with “pneumonia” for “skin wound”, “lung” for “skin”, “4, 8” for “1, 24”, “12” for “48”, “24” for “72”; assay type: functional, organism-based; settings: time 20.0 hrs
Staphylococcus aureus [19] = assay: Antibacterial activity against methicillin-resistant Staphylococcus aureus ATCC 33591 incubated for 18 to 24 hrs by broth microdilution method; assay type: functional; settings: time 18-24 hrs
[20] = Toxicity in Balb/c mouse assessed as inflammatory cell infiltration in liver at 80 mg/kg, ip measured after 7 days by H and E staining based analysis; assay type: organism-based; settings: in vivo, 168 h, time 7 day
[21] = Toxicity in Balb/c mouse assessed as survival rate at 80 mg/kg, ip measured after 7 days; assay type: organism-based; settings: in vivo, time 7 day
Staphylococcus aureus [22] = assay: as §2, with “TNF-alpha activity” for “bacterial load”, “14 days by IHC analysis” for “72 hrs post-infection in presence of polymyxin B”; assay type: functional, organism-based; settings: time 14.0 day
Staphylococcus aureus [23] = assay: Bactericidal activity against methicillin-resistant Staphylococcus aureus ATCC 33591 at 2 times MIC incubated for 6 hrs by time-kill assay relative to control; assay type: functional
[24] = Toxicity in Balb/c mouse assessed as change in lung co-efficient at 20 to 80 mg/kg, ip measured after 7 days; assay type: organism-based; settings: in vivo, 168 h, dose 20-80 mg/kg, time 7 day
Staphylococcus aureus [25] = assay: Antibacterial activity against ciprofloxacin-resistant Staphylococcus aureus ATCC 25923 incubated for 18 to 24 hrs; assay type: functional; settings: time 18-24 hrs
Mus musculus [26] = assay: In vivo inhibition of inflammation in Balb/c mouse model of acute systemic infection infected with methicillin-resistant Staphylococcus aureus ATCC 33591 assessed as reduction in TNF-alpha activity at 10 mg/kg, ip measured after 5 days; assay type: functional, organism-based; settings: time 5.0 day
Staphylococcus aureus [27] = assay: Inhibition of imipenem-induced drug resistance in […] Staphylococcus aureus ATCC 33591 at sub-MIC measured upto 15 passages; assay type: functional, organism-based
[28] = Stability in mouse serum assessed as compound degradation measured upto 96 hrs by RP-HPLC analysis; assay type: ADME, cell-free; settings: read-out: Drug degradation
Staphylococcus aureus [29] = assay: Induction of morphological changes in methicillin-resistant Staphylococcus aureus ATCC 33591 assessed as content leakage at 4 times MIC incubated for 2 hrs by SEM analysis; assay type: functional, organism-based
Staphylococcus aureus [30] = assay: Destruction of cell membrane in methicillin-resistant Staphylococcus aureus ATCC 33591 assessed as increase in red fluorescence intensity incubated for 2 hrs by PI staining based analysis; assay type: functional, organism-based
Staphylococcus aureus [31] = assay: as §1, with “bleeding” for “alveolar contraction”; assay type: functional, organism-based; settings: time 20.0 hrs
Mus musculus [32] = assay: In vivo inhibition of inflammation in Balb/c mouse model of acute systemic infection infected with methicillin-resistant Staphylococcus aureus ATCC 33591 assessed as reduction in IL-1beta activity at 10 mg/kg, ip measured after 5 days; assay type: functional, organism-based; settings: time 5.0 day
Staphylococcus aureus [33] = assay: Antibacterial activity against methicillin-resistant Staphylococcus aureus ATCC 33591 incubated for 18 to 24 hrs in presence of 1 mg/ml of chymotrypsin by broth microdilution method; assay type: functional; settings: time 18-24 hrs
Staphylococcus aureus [34] = assay: Antibacterial activity against methicillin-resistant Staphylococcus aureus ATCC 33591 infected in Balb/c mouse model of skin wound infection assessed as reduction in TNF-alpha activity in skin at 10 mg/kg, ip administered thrice at 1, 24 and 48 hrs post-infection measured after 14 days in presence of polymyxin B by IHC analysis; assay type: functional, organism-based; settings: time 14.0 day
Staphylococcus aureus [35] = assay: Induction of morphological changes in methicillin-resistant Staphylococcus aureus ATCC 33591 assessed as characteristic membrane rupture at 4 times MIC incubated for 2 hrs by SEM analysis; assay type: functional, organism-based

CCCCCCCCCCCC(=O)N[C@H](CCCNC(=N)N)C(=O)N[C@H](CCCNC(=N)N)C(=O)N[C@H](Cc1c[nH]c2ccccc12)C(=O)O
inactive: Activity (Staphylococcus aureus [6]) | Activity (DNA) Not active; Compound Exhibited Weak Affinity
Toxic: Activity [13] | Activity [20]
4 µM: MIC (Staphylococcus aureus [19]) | MIC (Staphylococcus aureus [33])
0.25: fractional inhibitory concentration index (FICI) (Staphylococcus aureus [16])
75%: survival at 168 h [21]
Non-toxic: Activity [12] | Activity [24]
~20%: metabolised at 96 h [28]
32 µM: MIC (Staphylococcus aureus [17])
8 µM: MIC (Staphylococcus aureus [1]) | MIC (Staphylococcus aureus [11]) | MIC (Staphylococcus aureus [25])
0%: survival at 168 h [4]
active: Activity (Staphylococcus aureus [2]) | Activity (Staphylococcus aureus [3]) | Activity (Staphylococcus aureus [5]) | Activity (Staphylococcus aureus [7]) | Activity (Staphylococcus aureus [10]) | Activity (Staphylococcus aureus [14]) | Activity (Staphylococcus aureus [15]) | Activity (Staphylococcus aureus [18]) | Activity (Staphylococcus aureus [22]) | inhibition (Mus musculus [26]) | inhibition (Staphylococcus aureus [27]) | Activity (Staphylococcus aureus [29]) | Activity (Staphylococcus aureus [30]) Dose-dependent-effect | Activity (Staphylococcus aureus [31]) | inhibition (Mus musculus [32]) | Activity (Staphylococcus aureus [34]) | Activity (Staphylococcus aureus [35])
100%: Activity (Staphylococcus aureus [8]) | survival at 168 h [9] | Activity (Staphylococcus aureus [23])

Source: ChEMBL document CHEMBL6114969, “Ultra-short lipopeptides containing d-amino acid exhibiting excellent stability and antibacterial activity against gram-positive bacteria” (Eur J Med Chem, 2025)
